# In patent US7989438B2, “Therapeutic compounds” (Istituto di Ricerche di Biologia Molecolare P. Angeletti SpA, priority 2007, dated 2011):
# Like-named read-outs stand apart in the source and are kept apart here.
# Test system: HCV subgenomic replication
# Assay: Cell based HCV replication assay (subgenomic replicon in Huh-7 cells, NS3 Cell-ELISA)
# Conditions: activity ranges, read-out: IC50* (nM), Inhibition of HCV subgenomic replication
# Method in brief: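 Huh-7 cells stably carrying the I377neo/NS3-3′/wt subgenomic replicon, seeded at 10^4 cells/well in DMEM/10% FCS and exposed to inhibitor for 96 h. NS3 expression was measured by Cell-ELISA (mAb 10E5/24, alkaline phosphatase, absorbance 405/620 nm), in duplicate. IC50 was fitted to the Hill equation, with background from parental Huh-7 cells.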
# [1] = Hepatitis C virus, Huh-7, Table 3, various macrocycles
# [2] = Hepatitis C virus, Huh-7, Table 5, various macrocycles
Structure (SMILES),"IC50 (Table 4, various macrocycles) [nM]","IC50 (Table 5, various macrocycles) [nM]",other results
"O=C1NS(=O)(=O)N2CCN(CCN(CCF)[C@H]3COc4ccccc4-c4c(C5CCCCC5)c5ccc1cc5n4C3)CC2 [Example 308, (20R)-30-cyclohexyl-21-(2-fluoroethyl)-18-oxa-2-thia-1,3,10,21,24-pentaazahexacyclo[22.2.2.1^5,9.1^8,11.1^10,20.0^12,17]hentriaconta-5(31),6,8,11(30),12,14,16-heptaen-4-one 2,2-dioxide]",–,–,IC50 [1]: 25 to 150 nM
"O=C1NS(=O)(=O)N2CCCN(CCN(Cc3ccccc3)[C@H]3COc4ccccc4-c4c(C5CCCCC5)c5ccc1cc5n4C3)CC2 [Example 309, (20R)-21-benzyl-31-cyclohexyl-18-oxa-2-thia-1,3,10,21,24-pentaazahexacyclo[22.3.2.1^5,9.1^8,11.1^10,20.0^12,17]dotriaconta-5(32),6,8,11(31),12,14,16-heptaen-4-one 2,2-dioxide]",–,–,IC50 [1]: 150 to 500 nM
"CN1CCNCCN(C)S(=O)(=O)NC(=O)c2ccc3c(C4CCCCC4)c4n(c3c2)CC1COc1ccccc1-4 [Example 401, (7S)-14-cyclohexyl-18,24-dimethyl-7,8-dihydro-6H-7,11-(epiminoethanoiminoethanoiminothioiminomethano)-indolo[1,2-e][1,5]benzoxazocin-15-one 17,17-dioxide]",25 to 150,–,–
"CN(C)CCN1CCOCCN(C)S(=O)(=O)NC(=O)c2ccc3c(C4CCCCC4)c4n(c3c2)CC1COc1ccccc1-4 [Example 402, (7R)-14-cyclohexyl-24-[2-(dimethylamino)ethyl]-18-methyl-7,8-dihydro-6H-7,11-(epiminoethanooxyethanoiminothioiminomethano)indolo[1,2-e][1,5]benzoxazocin-15-one 17,17-dioxide]",< 25,–,–
"C=CCc1cccc2c1OCC1Cn3c-2c(C2CCCCC2)c2ccc(cc23)C(=O)NS(=O)(=O)N(C)CCN(CC)CCN1C [Example 403, (7R)-4-allyl-14-cyclohexyl-21-ethyl-18,24-dimethyl-7,8-dihydro-6H-7,11-(epiminoethanoiminoethanoiminothioiminomethano)-indolo[1,2-e][1,5]benzoxazocin-15-one 17,17-dioxide]",25 to 150,–,–
"CCN1CCN(C)C2COc3c(F)cccc3-c3c(C4CCCCC4)c4ccc(cc4n3C2)C(=O)NS(=O)(=O)N(C)CC1 [Example 404, (7R)-14-cyclohexyl-21-ethyl-4-fluoro-18,24-dimethyl-7,8-dihydro-6H-7,11-(epiminoethanoiminoethanoiminothioiminomethano)-indolo[1,2-e][1,5]benzoxazocin-15-one 17,17-dioxide]",< 25,–,–
"CC(C)N1CCN(C)C2COc3c(F)cccc3-c3c(C4CCCCC4)c4ccc(cc4n3C2)C(=O)NS(=O)(=O)N(C)CC1 [Example 405, (7R)-14-cyclohexyl-4-fluoro-21-isopropyl-18,24-dimethyl-7,8-dihydro-6H-7,11-(epiminoethanoiminoethanoiminothioiminomethano)-indolo[1,2-e][1,5]benzoxazocin-15-one 17,17-dioxide]",< 25,–,–
"CCN1CCN(C)C2COc3c(cccc3C(F)(F)F)-c3c(C4CCCCC4)c4ccc(cc4n3C2)C(=O)NS(=O)(=O)N(C)CC1 [Example 406, (7R)-14-cyclohexyl-21-ethyl-18,24-dimethyl-4-(trifluoromethyl)-7,8-dihydro-6H-7,11-(epiminoethanoiminoethanoiminothioiminomethano)-indolo[1,2-e][1,5]benzoxazocin-15-one 17,17-dioxide]",150 to 500,–,–
"CN1CCN(C)[C@H]2COc3c(CC4CC4)cccc3-c3c(C4CCCCC4)c4ccc(cc4n3C2)C(=O)NS(=O)(=O)N(C)CC1 [Example 407, (7R)-14-cyclohexyl-4-(cyclopropylmethyl)-18,21,24-trimethyl-7,8-dihydro-6H-7,11-(epiminoethanoiminoethanoiminothioiminomethano)-indolo[1,2-e][1,5]benzoxazocin-15-one 17,17-dioxide]",< 25,–,–
"CN1CCN(CC(N)=O)C2COc3ccccc3-c3c(C4CCCCC4)c4ccc(cc4n3C2)C(=O)NS(=O)(=O)N(C)CC1 [Example 408, 2-[(7R)-14-cyclohexyl-18,21-dimethyl-17,17-dioxido-15-oxo-7,8-dihydro-6H-7,11-(epiminoethanoiminoethanoiminothioiminomethano)-indolo[1,2-e][1,5]benzoxazocin-24-yl]acetamide]",25 to 150,–,–
"CN1CCN(Cc2cnn(C)c2)C2COc3ccccc3-c3c(C4CCCCC4)c4ccc(cc4n3C2)C(=O)NS(=O)(=O)N(C)CC1 [Example 409, (7R)-14-cyclohexyl-18,21-dimethyl-24-[(1-methyl-1H-pyrazol-4-yl)methyl]-7,8-dihydro-6H-7,11-(epiminoethanoiminoethanoiminothioiminomethano)-indolo[1,2-e][1,5]benzoxazocin-15-one 17,17-dioxide]",< 25,–,–
"CN1CCNCCN(C)S(=O)(=O)NC(=O)c2ccc3c(C4CCCCC4)c4n(c3c2)C[C@@H]1COc1c(CN2CCOCC2)cccc1-4 [Example 410, (7R)-14-cyclohexyl-18,24-dimethyl-4-(morpholin-4-ylmethyl)-7,8-dihydro-6H-7,11-(epiminoethanoiminoethanoiminothioiminomethano)-indolo[1,2-e][1,5]benzoxazocin-15-one 17,17-dioxide]",25 to 150,–,–
"CN1CCN(C)[C@H]2COc3c(OCc4ccccc4)cccc3-c3c(C4CCCCC4)c4ccc(cc4n3C2)C(=O)NS(=O)(=O)N(C)CC1 [Example 411, (7R)-4-(benzyloxy)-14-cyclohexyl-18,21,24-trimethyl-7,8-dihydro-6H-7,11-(epiminoethanoiminoethanoiminothioiminomethano)-indolo[1,2-e][1,5]benzoxazocin-15-one 17,17-dioxide]",25 to 150,–,–
"COc1cccc2c1OCC1Cn3c-2c(C2CCCCC2)c2ccc(cc23)C(=O)NS(=O)(=O)N(C)CCN(C)CCN1C [Example 412, (7R)-14-cyclohexyl-4-methoxy-18,21,24-trimethyl-7,8-dihydro-6H-7,11-(epiminoethanoiminoethanoiminothioiminomethano)-indolo[1,2-e][1,5]benzoxazocin-15-one 17,17-dioxide]",< 25,–,–
"CN1C2CCN(CCC3COc4ccccc4-c4c(C5CCCCC5)c5ccc(cc5n4C3)C(=O)NS1(=O)=O)CC2 (centres unmarked) [Example 504, 30-cyclohexyl-23-methyl-6-oxa-22-thia-1,14,21,23-tetraazahexacyclo[22.2.2.1^4,14.1^13,16.1^15,19.0^7,12]hentriaconta-7,9,11,13(30),15(29),16,18-heptaen-20-one 22,22-dioxide]",–,–,IC50 [2]: 25 to 150 nM
"O=C1NS(=O)(=O)N2CCCN(CCCC3COc4ccccc4-c4c(C5CCCCC5)c5ccc1cc5n4C3)CC2 (centres unmarked) [Example 508, 31-cyclohexyl-18-oxa-2-thia-1,3,10,24-tetraazahexacyclo[22.3.2.1^5,9.1^8,11.1^10,20.0^12,17]dotriaconta-5(32),6,8,11(31),12,14,16-heptaen-4-one 2,2-dioxide]",–,–,IC50 [2]: 25 to 150 nM
"CC(C)N1CCCC2COc3ccccc3-c3c(C4CCCCC4)c4ccc(cc4n3C2)C(=O)NS(=O)(=O)N(C)CC1 (centres unmarked) [Example 509, 14-cyclohexyl-21-isopropyl-18-methyl-7,8-dihydro-6H-7,11-(propanoiminoethanoiminothioiminomethano)indolo[1,2-e][1,5]benzoxazocin-15-one 17,17-dioxide]",–,< 25,–
"COc1cccc2c1OCC1CCCN(C)CCN(C)S(=O)(=O)NC(=O)c3ccc4c(C5CCCCC5)c-2n(c4c3)C1 [Example 510, (7R)-14-cyclohexyl-4-methoxy-18,21-dimethyl-7,8-dihydro-6H-7,11-(propanoiminoethanoiminothioiminomethano)indolo[1,2-e][1,5]benzoxazocin-15-one 17,17-dioxide]",–,< 25,–
"CN1CCCC2COc3c(OCCN4CCCC4)cccc3-c3c(C4CCCCC4)c4ccc(cc4n3C2)C(=O)NS(=O)(=O)N(C)CC1 [Example 511, (7R)-14-cyclohexyl-18,21-dimethyl-4-(2-pyrrolidin-1-ylethoxy)-7,8-dihydro-6H-7,11-(propanoiminoethanoiminothioiminomethano)indolo[1,2-e][1,5]benzoxazocin-15-one 17,17-dioxide]",–,< 25,–
"CN1CCC(C)(C)CCN(C)S(=O)(=O)NC(=O)c2ccc3c(C4CCCCC4)c4n(c3c2)CC1COc1ccccc1-4 [Example 512, (7R)-14-cyclohexyl-18,21,21,24-tetramethyl-7,8-dihydro-6H-7,11-(epiminopentanoiminothioiminomethano)indolo[1,2-e][1,5]benzoxazocin-15-one 17,17-dioxide]",–,150 to 500,–
"Cc1cccc2c1OC[C@@H]1CCCN(C)CCN(C)S(=O)(=O)NC(=O)c3ccc4c([C@H]5CCCC[C@@H]5F)c-2n(c4c3)C1 [Example 513, (7R)-14-[(1R,2S)-2-fluorocyclohexyl]-4,18,21-trimethyl-7,8-dihydro-6H-7,11-(propanoiminoethanoiminothioiminomethano)indolo[1,2-e][1,5]benzoxazocin-15-one 17,17-dioxide]",–,< 25,–
"Cc1cccc2c1OCC1Cn3c-2c(C2CCCCC2)c2ccc(cc23)C(=O)NS(=O)(=O)N(C)CCN(CC(=O)N(C)C)CCN1C [Example 514, 2-[(7R)-14-cyclohexyl-4,18,24-trimethyl-17,17-dioxido-15-oxo-7,8-dihydro-6H-7,11-(epiminoethanoiminoethanoiminothioiminomethano)-indolo[1,2-e][1,5]benzoxazocin-21-yl]-N,N-dimethylacetamide]",–,< 25,–
"Cc1cccc2c1OCC1Cn3c-2c(C2CCCCC2)c2ccc(cc23)C(=O)NS(=O)(=O)N(C)CCNCCN1C [Example 515, (7R)-14-cyclohexyl-4,18,24-trimethyl-7,8-dihydro-6H-7,11-(epiminoethanoiminoethanoiminothioiminomethano)-indolo[1,2-e][1,5]benzoxazocin-15-one 17,17-dioxide]",–,< 25,–
